Assay results: paper PMC10319141, “Imidazoquinolines with improved pharmacokinetic properties induce a high IFNα to TNFα ratio in vitro and in vivo” (Frontiers in Immunology, 2023)
Read-outs that look alike come from different tables or passages of the source.

What was measured:
human TLR7 = target: T1, human TLR7 (Homo sapiens, UniProt Q9NYK1); test: HEK-Blue hTLR7 SEAP reporter assay; assay type: cell-based; settings: for TLR7 activity rel. to assay max: average maximal SEAP secretion relative to maximum secretion observed in the assay
T1 construct: host or cells: HEK blue hTLR7 reporter cells
T1 sequence (Q9NYK1 27-1049): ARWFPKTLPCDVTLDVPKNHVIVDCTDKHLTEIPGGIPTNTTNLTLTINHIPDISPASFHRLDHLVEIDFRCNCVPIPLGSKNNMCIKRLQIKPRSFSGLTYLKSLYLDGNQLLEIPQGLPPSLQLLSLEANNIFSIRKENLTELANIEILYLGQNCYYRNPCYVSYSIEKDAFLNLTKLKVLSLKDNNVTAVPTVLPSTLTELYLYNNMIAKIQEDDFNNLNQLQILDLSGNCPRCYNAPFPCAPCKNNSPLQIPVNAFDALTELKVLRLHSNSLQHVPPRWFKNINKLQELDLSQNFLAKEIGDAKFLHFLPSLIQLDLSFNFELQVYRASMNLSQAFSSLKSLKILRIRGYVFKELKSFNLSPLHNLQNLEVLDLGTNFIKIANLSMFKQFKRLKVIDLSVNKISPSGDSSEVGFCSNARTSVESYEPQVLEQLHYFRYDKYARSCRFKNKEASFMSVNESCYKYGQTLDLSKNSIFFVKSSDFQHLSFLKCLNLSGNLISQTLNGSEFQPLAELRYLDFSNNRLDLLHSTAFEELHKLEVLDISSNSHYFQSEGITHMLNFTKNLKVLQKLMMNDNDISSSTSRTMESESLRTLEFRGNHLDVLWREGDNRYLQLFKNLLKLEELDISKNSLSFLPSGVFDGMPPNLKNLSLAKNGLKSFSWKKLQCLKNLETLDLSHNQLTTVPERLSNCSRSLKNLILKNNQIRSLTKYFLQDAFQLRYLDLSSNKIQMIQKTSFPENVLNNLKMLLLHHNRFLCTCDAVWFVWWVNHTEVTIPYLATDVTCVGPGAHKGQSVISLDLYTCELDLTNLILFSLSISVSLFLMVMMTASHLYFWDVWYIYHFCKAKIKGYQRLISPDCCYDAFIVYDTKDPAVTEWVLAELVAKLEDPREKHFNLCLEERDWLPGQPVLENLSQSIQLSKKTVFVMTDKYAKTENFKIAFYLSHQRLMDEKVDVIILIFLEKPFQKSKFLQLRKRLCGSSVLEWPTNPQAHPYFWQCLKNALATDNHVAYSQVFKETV
Experimental: (§1) HEK blue hTLR7 or hTLR8 reporter cells (Invivogen) were cultivated in DMEM High Glucose (Biowest) according to the manufacturer’s instructions. Cells were treated with test compounds and controls at various concentrations in serum-free DMEM and incubated at 37°C, 5% CO2 for 24 h before supernatants were collected.
(§2) Relative secreted embryonic alkaline phosphatase (SEAP) activity in the supernatants was determined by quantification of para-Nitrophenyl Phosphate (pNPP)-turnover. Supernatants were diluted 10-fold in a solution containing 1 mM MgCl2, 1 M diethanolamine and 1 mg/mL pNPP and incubated at RT for 15 min before the reaction was stopped by the addition of 0.25 volumes of 1 M NaOH. Absorbance was measured at 405 nm on a Versamax microplate reader (Molecular Devices) and normalized to the mean of >5 solvent controls.
(§3) To obtain reliable estimates, replicate measurements of a minimum of 2 experiments were normalized to the maximal SEAP activity of a compound in a given experiment and pooled before fitting a non-linear function to the data.

PMA-differentiated U937 = test: MTT viability assay in PMA-differentiated U937; assay type: cell-based; settings: 25 µM; PMA-differentiated U937, 2 days
undifferentiated U937 = test: Helix NIR dye exclusion in undifferentiated U937; assay type: cell-based; settings: 25 µM; in words
Experimental: Exclusion of Helix NIR (BioLegend) was used to assay membrane integrity following compound treatment. Culture conditions for U937 were as described above, undifferentiated cells were incubated with varying concentrations of compound or with solvent. Helix NIR was added to the cells to a final concentration of 10 nM, cells were incubated at RT for 10 min and acquired on a ZE5 Cell Analyzer (Bio-Rad). The cutoff for positive staining was set to approximately the 99th percentile of unstained cells.

human TLR8 = target: T2, human TLR8 (Homo sapiens, UniProt Q9NR97); test: HEK-Blue hTLR8 SEAP reporter assay; assay type: cell-based; settings: for TLR8 activity rel. to assay max: average maximal SEAP secretion relative to maximum secretion observed in the assay; for SEAP secretion from HEK-Blue hTLR-8: in words
T2 construct: host or cells: HEK blue hTLR8 reporter cells
T2 sequence (Q9NR97 27-1041): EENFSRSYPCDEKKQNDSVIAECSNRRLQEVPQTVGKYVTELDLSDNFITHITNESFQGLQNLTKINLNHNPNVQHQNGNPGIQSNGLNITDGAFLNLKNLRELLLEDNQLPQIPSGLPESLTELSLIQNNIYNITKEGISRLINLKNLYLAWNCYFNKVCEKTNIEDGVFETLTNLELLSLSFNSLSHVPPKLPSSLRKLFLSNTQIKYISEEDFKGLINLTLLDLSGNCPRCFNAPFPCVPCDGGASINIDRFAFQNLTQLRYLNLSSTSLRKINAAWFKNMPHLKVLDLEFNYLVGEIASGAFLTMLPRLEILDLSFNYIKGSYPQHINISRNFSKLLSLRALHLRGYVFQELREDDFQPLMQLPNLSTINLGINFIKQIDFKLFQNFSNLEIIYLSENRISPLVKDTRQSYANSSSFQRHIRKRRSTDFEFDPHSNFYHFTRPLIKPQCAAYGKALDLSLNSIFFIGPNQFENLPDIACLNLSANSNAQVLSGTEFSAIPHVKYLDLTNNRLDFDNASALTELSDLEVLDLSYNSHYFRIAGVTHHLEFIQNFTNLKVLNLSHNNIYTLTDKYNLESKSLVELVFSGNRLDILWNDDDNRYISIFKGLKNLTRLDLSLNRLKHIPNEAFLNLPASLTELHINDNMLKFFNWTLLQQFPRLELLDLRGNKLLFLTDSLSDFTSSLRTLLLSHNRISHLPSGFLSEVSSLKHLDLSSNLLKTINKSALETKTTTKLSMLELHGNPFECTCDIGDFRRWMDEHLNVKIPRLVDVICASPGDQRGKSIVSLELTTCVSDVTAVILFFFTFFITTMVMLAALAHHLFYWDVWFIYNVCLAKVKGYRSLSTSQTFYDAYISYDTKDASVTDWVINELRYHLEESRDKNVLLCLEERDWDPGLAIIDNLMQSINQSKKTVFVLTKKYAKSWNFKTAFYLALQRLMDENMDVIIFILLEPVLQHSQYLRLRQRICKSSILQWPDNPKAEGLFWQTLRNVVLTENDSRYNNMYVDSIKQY
Experimental: as §1, §2, §3

[1] = Compound concentrations in organs and plasma after three consecutive daily s.c. treatments (Figure 6B, S7); assay type: in vivo, mice; settings: for compound plasma level at peak: s.c.; for concentration at 4 h / concentration at 28 h / concentration at 52 h: mouse, sc, repeated daily s.c. treatment; for concentration at 4 h: after 4 h; for concentration at 28 h: after 28 h; for concentration at 52 h: after 52 h
Experimental: All samples were extracted with 3 or 6 volumes acetonitrile containing terbuthylazine as an internal standard (ACN) relative to either sample weight or volume. Liquid samples (plasma, culture medium, cell suspensions in stability experiments) were diluted in either 3 (culture medium, cell suspensions) or 6 (plasma) volumes ACN, pellet and blood samples were extracted by addition of ACN followed by sonication for 5 min. Organ samples were digested with 0.5 µg/mg Proteinase K (Genaxxon) for 1 h at 50°C before being homogenized using a Fastprep FP-24 5G instrument (MP-Biomedicals). Homogenates were diluted with 6 volumes ACN and homogenized again. All extracts were cleared by centrifugation at ~20.000xg for 10 min at 4°C.
Quantification of analytes was performed on an Agilent 1260/1290 Infinity system fitted with an Agilent C18 Poroshell 120 column (4.6 x 50 mm, 2.7 µm) coupled to a triple quadrupole Sciex API 4000 MS/MS detector. The mobile phase was composed of water containing 0.1% formic acid (eluent A) and acetonitrile containing 0.1% formic acid (eluent B). Gradient used was: 5% B for 0.5 min, to 100% B in 4.5 min, 100% B for 2 min, to 5% B in 0.5 min, 5% for 2.5 min. MS detection parameters are listed in SI Table S1 .
Formulation. Test compounds were prepared for application in either 1% Tween 80, 9% PEG400 in ultrapure water (Biowest) (i.v., i.p., p.o. application) or 5 mM citric acid in 0.9% saline (Braun) (subcutaneous application). If compounds were administered subcutaneously, injections were carried out into the neck crease.
Collection of Samples. Mice were bled from the tail vein at various timepoints. Heparin (Sigma) or K2-EDTA (Sigma) was added to blood samples to a final […] concentration of 10-15 Unit or 5 mM. Plasma was generated by centrifugation at 6800xg for 8 min at 4°C and stored at -80°C until analyzed by ELISA or CBA. Animals were sacrificed after the indicated time points by CO2 inhalation. Heart blood and organs for compound quantification by HPLC-MS/MS were collected post mortem and stored at –20°C until extracted as described above.
Dotted lines indicate the time of repeated compound applications. (A) Cytokine levels in pooled tail plasma of mice from individual treatment groups (n=3 per pool and time point), error bars represent range of two replicate measurements. (B) Peripheral blood was collected from the tail vein before, 15, 30 60, 120, 240, 360 and 480 min after s.c. treatment. Compound concentration in peripheral plasma was analyzed by HPLC-MS/MS, data presented as mean ± SD.
Samples were collected 4 h, 28 h and 52 h after s.c. treatment. Skin samples were sampled
at time points 4 h and 52 h. Compound concentrations were analyzed by HPLC-MS/MS, data

[2] = 95% CI, HEK-blue human TLR7, 24 h, read-out: TLR7 EC50
[3] = Figure S3, axis c/[µM], pooled from 3 experiments, read-out: compound-specific EC50 in dose response plot, HEK Blue hTLR7
[4] = 95% CI, HEK-blue human TLR8, 24 h, read-out: TLR8 EC50
[5] = Figure S4, axis c/[µM], pooled from 3 experiments, read-out: compound-specific EC50 in dose response plot, HEK Blue hTLR8
[6] = brain, read-out: concentration in brain
[7] = liver, read-out: concentration in liver

SMILES | Average maximal activity in HEK-Blue hTLR7 relative to RSQ (human TLR7) [%] | EC50 (human TLR7; [2]) [µM] | EC50 (human TLR7; [3]) [µM] | TLR7 activity rel. to assay max (human TLR7) | effect on membrane integrity, dye exclusion assay in U937 (undifferentiated U937) | TLR8 activity rel. to assay max (human TLR8) | SEAP secretion from HEK-Blue hTLR-8 (human TLR8) | maximal induction in HEK-Blue hTLR-8 (lower than that of RSQ) (human TLR8) [%] | EC50 (human TLR8; [4]) [µM] | EC50 (human TLR8; [5]) [µM] | compound plasma level at peak ([1]; day 1, 60 min after application) [nM] | compound plasma level at peak ([1]; day 2, 60 min after application) [nM] | compound plasma level at peak ([1]; day 3, 60 min after application) [nM] | concentration at 4 h [1, 6] [nM] | concentration at 28 h [1, 6] [nM] | concentration at 52 h [1, 6] [nM] | concentration at 4 h [1, 7] [nM] | concentration at 28 h [1, 7] [nM] | concentration at 52 h [1, 7] [nM] | MTT U937, percent MTT conversion relative to solvent controls (PMA-differentiated U937) [%]
CCCCc1nc2c(N)nc3ccccc3c2n1CCC1CCN(C(=O)OC(C)(C)C)CC1 [A1-boc] | 55 | 0.39 to 0.69 | 0.527 | 55% ± 7% | negative effects on membrane integrity | 4% ± 2% | close to baseline |  |  |  |  |  |  |  |  |  |  |  |  | 50
CCCCc1nc2c(N)nc3ccccc3c2n1CC1CCN(C(=O)OC(C)(C)C)CC1 [A2-boc] | 86 | 0.23 to 0.47 |  | 86% ± 9% |  | 4% ± 1% | close to baseline |  |  |  |  |  |  |  |  |  |  |  |  | 
CCCCc1nc2c(N)nc3ccccc3c2n1CC1CCNCC1 [A2] | 81 | 0.075 to 0.12 | 0.0957 | 81% ± 13% |  | 57% ± 9% |  | 57 | 2.8 to 3.1 | 2.96 |  |  |  |  |  |  |  |  |  | 
CC(C)Cn1cnc2c(N)nc3ccccc3c21 [IMQ, Imiquimod] |  | 5.2 to 8.3 | 6.52 | 35% ± 7% |  |  |  |  |  |  | 796 | 606 | 608 | 32 | 135 | 177 | 630 | 824 | 645 | 

Continued, in another order:

Average maximal activity in HEK-Blue hTLR7 relative to RSQ (human TLR7) [%] | EC50 (human TLR7; [2]) [µM] | EC50 (human TLR7; [3]) [µM] | TLR7 activity rel. to assay max (human TLR7) | effect on membrane integrity, dye exclusion assay in U937 (undifferentiated U937) | TLR8 activity rel. to assay max (human TLR8) | SEAP secretion from HEK-Blue hTLR-8 (human TLR8) | maximal induction in HEK-Blue hTLR-8 (lower than that of RSQ) (human TLR8) [%] | EC50 (human TLR8; [4]) [µM] | EC50 (human TLR8; [5]) [µM] | compound plasma level at peak ([1]; day 1, 60 min after application) [nM] | compound plasma level at peak ([1]; day 2, 60 min after application) [nM] | compound plasma level at peak ([1]; day 3, 60 min after application) [nM] | concentration at 4 h [1, 6] [nM] | concentration at 28 h [1, 6] [nM] | concentration at 52 h [1, 6] [nM] | concentration at 4 h [1, 7] [nM] | concentration at 28 h [1, 7] [nM] | concentration at 52 h [1, 7] [nM] | SMILES | MTT U937, percent MTT conversion relative to solvent controls (PMA-differentiated U937) [%]
 | 1 to 1.5 | 1.24 | 62% ± 9% |  | 36% ± 4% |  | 36 | 8.2 to 8.5 | 8.36 |  |  |  |  |  |  |  |  |  | CCCCc1nc2c(N)nc3ccccc3c2n1CCOCCOCCN [A3] | 
 | 1.5 to 2.1 | 1.76 | 84% ± 5% |  | 18% ± 8% |  | 18 | 11 to 13 | 12.1 |  |  |  |  |  |  |  |  |  | CCCCc1nc2c(N)nc3ccccc3c2n1CCOCCOCCO [A4] | 
